In PMC467046, “Computational and spectroscopic insight into the binding of citral with human transferrin: Targeting neurodegenerative diseases” (Heliyon, 2024):

Target: T1, human transferrin (htf) (Homo sapiens, UniProt P02787)
T1 construct: gene TF; single-chain glycoprotein of 679 amino acids (mature)
Assay: intrinsic fluorescence quenching, modified Stern-Volmer plot
Assay type: binding
Settings: 298 K; 4 uM htf, 0-8 uM citral; excitation 280 nm; double-log
Description: intrinsic fluorescence quenching, modified Stern-Volmer plot on human transferrin (htf)

T1 sequence (P02787 20-698): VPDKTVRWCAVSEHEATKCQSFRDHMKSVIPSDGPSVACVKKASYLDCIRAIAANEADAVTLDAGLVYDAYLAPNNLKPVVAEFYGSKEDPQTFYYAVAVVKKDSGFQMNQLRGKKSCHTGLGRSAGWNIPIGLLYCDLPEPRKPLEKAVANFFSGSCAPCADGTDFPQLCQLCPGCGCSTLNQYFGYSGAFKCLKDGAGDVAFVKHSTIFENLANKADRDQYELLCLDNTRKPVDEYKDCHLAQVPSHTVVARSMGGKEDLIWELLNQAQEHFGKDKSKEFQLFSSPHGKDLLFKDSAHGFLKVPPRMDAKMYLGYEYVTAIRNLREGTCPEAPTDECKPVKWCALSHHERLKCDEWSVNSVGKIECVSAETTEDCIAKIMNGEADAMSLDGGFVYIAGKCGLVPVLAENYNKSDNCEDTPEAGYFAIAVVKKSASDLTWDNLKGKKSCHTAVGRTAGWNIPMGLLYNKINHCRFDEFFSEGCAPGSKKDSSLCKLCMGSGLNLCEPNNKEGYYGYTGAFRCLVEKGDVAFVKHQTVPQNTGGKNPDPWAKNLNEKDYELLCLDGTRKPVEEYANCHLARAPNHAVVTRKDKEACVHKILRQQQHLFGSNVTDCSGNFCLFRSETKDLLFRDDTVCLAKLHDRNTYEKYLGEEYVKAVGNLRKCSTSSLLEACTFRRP

K 10^6M^-1: 0.82 10^6 M^-1
SMILES: CC(C)=CCCC(C)=CC=O [citral]
